What all share (format): cell-based
The test system of assay [1] is Phaeosphaeria nodorum. Nature of the assay: Plate medium fungicidal assay, wheat Septoria nodorum blotch P.n (Experimental Example 5). The method, boiled down:
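Compound in DMSO mixed into PDA plate medium at 50 mg/L and 5 mg/L; 4 mm mycelial plug of pre-cultured fungus inoculated onto plate. Colony diameter compared with untreated plate, % mycelial growth inhibition = 100(dc−dt)/dc, scored in 5 grades.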

Assay [2] has as its system Botritis cinerea. Nature of the assay: Plate medium fungicidal assay, gray mold B.c (Experimental Example 5). The method, boiled down:
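Compounds in DMSO were incorporated into PDA plate medium at 50 mg/L and 5 mg/L, then inoculated with 4 mm mycelial plugs of Botrytis cinerea. Colony diameter versus untreated plates gave % mycelial growth inhibition, R=100(dc−dt)/dc, scored on a 5-grade scale.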

Assay [3] concerns Rhynchosporium secalis. The assay is described as follows: Plate medium fungicidal assay, barley leaf blotch R.sec (Experimental Example 5). Put shortly: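 Compound in DMSO mixed into PDA plate medium at 50 mg/L and 5 mg/L; 4 mm mycelial plug of the fungus inoculated. Colony diameter compared with untreated plates gives % mycelial growth inhibition R=100(dc−dt)/dc, scored on a 5-grade scale.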

The test system of assay [4] is Fusarium oxysporum. The assay is described as follows: Plate medium fungicidal assay, cucumber fusarium wilt F.c (Experimental Example 5). Put shortly:
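Compound in DMSO mixed into PDA agar to give plates at 50 mg/L and 5 mg/L, then inoculated with 4 mm mycelial plug. Colony diameter compared with untreated plate as % mycelial growth inhibition, R=100(dc−dt)/dc, then scored on a 5-grade scale.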

The test system of assay [5] is Pseudocercoporella herpotrichoides. Nature of the assay: Plate medium fungicidal assay, wheat eye spot P.h (Experimental Example 5). The method, boiled down: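 Compound in DMSO mixed into PDA agar for plates at 50 mg/L and 5 mg/L, inoculated with a 4 mm mycelial plug of Pseudocercosporella herpotrichoides. Colony diameter compared with untreated plates: % mycelial growth inhibition = 100(dc−dt)/dc, scored on a 5-grade scale.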

[6] abbreviates: plate medium containing compound at 5 mg/L.
Where [7] appears, read: plate medium containing compound at 50 mg/L.

Structures are written as SMILES. Bounds are passed on as bounds.

What is called inhibition is the drop in the measured response relative to a control, in per cent.

`CC[C@]1(CCl)CC[C@@H](Cc2ccccc2)[C@]1(O)Cn1cncn1` (relative stereo) [Compound I-97]: the “Growth inhibition grade, P.n” value in assay [1] (setting [6]) and in assay [1] (setting [7]) was 5 (% Mycerial growth inhibition of 80% or higher) throughout. Further, the “Growth inhibition grade, B.c” value in assay [2] (setting [6]) and in assay [2] (setting [7]) was 5 (% Mycerial growth inhibition of 80% or higher) each time. In addition, the “Growth inhibition grade, R.sec” value in assay [3] (setting [6]) and in assay [3] (setting [7]) was 5 (% Mycerial growth inhibition of 80% or higher) each time. Moreover, the “Growth inhibition grade, F.c” value in assay [4] (setting [6]) and in assay [4] (setting [7]) was 5 (% Mycerial growth inhibition of 80% or higher) in each case. Further, the “Growth inhibition grade, P.h” value in assay [5] (setting [6]) and in assay [5] (setting [7]) was 5 (% Mycerial growth inhibition of 80% or higher) each time.
Consider `C[C@]1(CCl)CC[C@@H](Cc2ccc(F)cc2F)[C@]1(O)Cn1cncn1` (relative stereo) [Compound I-88], for which the “Growth inhibition grade, P.n” value in assay [1] (setting [6]) and in assay [1] (setting [7]) was 5 (% Mycerial growth inhibition of 80% or higher) throughout. The “Growth inhibition grade, B.c” value in assay [2] (setting [6]) and in assay [2] (setting [7]) was 5 (% Mycerial growth inhibition of 80% or higher) throughout. Besides, the “Growth inhibition grade, R.sec” value in assay [3] (setting [6]) and in assay [3] (setting [7]) was 5 (% Mycerial growth inhibition of 80% or higher) throughout. The “Growth inhibition grade, F.c” value in assay [4] (setting [6]) and in assay [4] (setting [7]) was 5 (% Mycerial growth inhibition of 80% or higher) each time. Also, the “Growth inhibition grade, P.h” value in assay [5] (setting [6]) and in assay [5] (setting [7]) was 5 (% Mycerial growth inhibition of 80% or higher) throughout.
For the molecule `C[C@@]1(CCCl)CC[C@@H](Cc2ccc(Cl)cc2)[C@]1(O)Cn1cncn1` (racemic) [Compound I-104, (1RS,2SR,5SR)-5-(4-chlorobenzyl)-2-(2-chloroethyl)-2-methyl-1-(1H-1,2,4-triazol-1-ylmethyl)cyclopentanol], the inhibition at 5 µg/mL was > 80% in assay [1] (Parastagonospora nodorum, plate medium, 5 mg/L, read-out: growth inhibition grade P.n); > 80% in assay [2] (plate medium, 5 mg/L, read-out: growth inhibition grade B.c); > 80% in assay [3] (Rhynchosporium secalis, plate medium, 5 mg/L, read-out: growth inhibition grade R.sec); > 80% in assay [4] (Fusarium oxysporum, plate medium, 5 mg/L, read-out: growth inhibition grade F.c); > 80% in assay [5] (plate medium, 5 mg/L, read-out: growth inhibition grade P.h). Further, the inhibition at 50 µg/mL in assay [1] (Parastagonospora nodorum, plate medium, 50 mg/L, read-out: growth inhibition grade P.n) was > 80%; in assay [2] (plate medium, 50 mg/L, read-out: growth inhibition grade B.c), > 80%; in assay [3] (Rhynchosporium secalis, plate medium, 50 mg/L, read-out: growth inhibition grade R.sec), > 80%; in assay [4] (Fusarium oxysporum, plate medium, 50 mg/L, read-out: growth inhibition grade F.c) it was > 80%; in assay [5] (plate medium, 50 mg/L, read-out: growth inhibition grade P.h), > 80%.

Source of the values: US9145351B2, “Azole derivatives, methods for producing the same, intermediate thereof, agro-horticultural agents” (KUREHA CORPORATION, priority 2009, dated 2015).
